Data published in US20150031890A1, “PHARMACEUTICAL COMPOSITION COMPRISING BICYCLIC PYRIDINOL DERIVATIVES FOR PREVENTING OR TREATING DISEASES CAUSED BY ANGIOGENESIS” (Research Cooperation Foundation of Yeungnam University, priority 2011, published 2015).

Assays:
A549 lung cancer cells = experiment: angiogenesis caused by tumorigenesis and tumor growth, A549 cells inoculated to CAM; type: in vivo, chicken; conditions: A549 cells 1.5×10^6 cells/CAM, 5 days after inoculation (FIG. 8)
Experimental: FIG. 8 illustrates an observation result of angiogenesis caused by tumorigenesis by inoculating A549 lung cancer cells to a CAM and a tumor growth inhibitory effect. Fertilized chicken eggs were cultured, and on the ninth day, a window was made in the same manner, and instead of a disc, cancer cells were mixed with matrigel at a ratio of 1:1 and treated with the compound 12 and inoculated in a density of 1.5×10^6 cells/CAM. After 5 days from the inoculation, a CAM portion, in which tumor was formed, was separated and washed with PBS to take images using a stereomicroscope (Stemi SV6 stereomicroscope, Carl Zeiss, Germany) and Image-Pro Plus software (Media Cybernetics; Silver Spring, Md., USA). Then, the number of branches was counted and the result data were analyzed.

[1] = single oral dose toxicity experiment in mice; type: in vivo; conditions: single oral dose 0.5, 1 and 2 g/kg, 7 days
Experimental: The compound 12 was suspended in a 0.5% methyl cellulose solution and orally administered to male Balb/c mice with a single dose of 0.5 g/kg, 1 g/kg, and 2 g/kg. Then, the survival rate and weights of the mice were checked for 7 days.
After the administration, whether the animal was dead or not, clinical symptoms, changes in weight were observed, and a hematological test and a blood chemical test were carried out.

[2] = test system: adult retinal pigment epithelium (ARPE)-19 cell line; experiment: ROS scavenging effect in ARPE-19 cell line (4-HNE or angiotensin II); type: cell-based, human
Experimental: (§1) In order to measure an ROS scavenging effect in HUVEC cells induced by a VEGF, 2′,7′-dichlorofluorescein diacetate (DCF-DA) was used. […] The HUVEC cells were injected into 8-well plates coated with 0.2% gelatin in a density of 1×10^5 cells/well and then cultured for 24 hours. A pre-treatment was carried out to the compound 12 for 3 hours and induced by the VEGF for 15 minutes and washed with PBS (pH 7.4) three times. Then, 10 μM DCF-DA was put into an EBM-2 and used to treat in darkroom for 30 minutes, and then washed again with the PBS three times. A fluorescence degree of the cells was measured using a fluorescence microscope. FIG. 5 provides photomicrographs taken at a magnification of 400 times of cells in order to check an ROS scavenging effect of the compound 12 of the present invention. […] FIG. 6 and FIG. 7 illustrate an observation result of the ROS scavenging effect of the compound 12 by treating the adult retinal pigment epithelium (ARPE)-19 cell line with 4-hydroxynonenal (4-HNE) or angiotensin II, which is a risk factor of macular degeneration. […] The 4-hydroxynonenal (4-HNE) or angiotensin II, which is a risk factor of macular degeneration caused cell damage by generation of ROS in ARPE cell and caused damage of a Bruch's membrane and angiogenesis, resulting in macular degeneration and loss of eyesight.

[3] = test system: neovascularization induced by VEGF in chicken chorioallantoic membrane (CAM); experiment: chorioallantoic membrane (CAM) assay, VEGF-induced angiogenesis; type: in vivo
Experimental: To examine angiogenesis inhibitory effects in vivo, a chorioallantoic membrane (CAM) assay was carried out (Nguyen M et al., Microvascular Res., 47, pp 31-40, 1994).
Fertilized chicken eggs were cultured keeping the temperature at 37° C. and the relative humidity at 55%. On the tenth day, the first small hole was made in the region of air sac and the second hole was dug in the flat region of egg, where a window was to be made, using a hypodermic needle (Greencross Medical Science, Korea).
Each egg was deflated through the first hole in the region of the air sac so that the chorioallantoic membrane (CAM) was split from the egg shell. Subsequently, a window was made by cutting this region using a grinding wheel (Multipro 395JA, Dremel, Mexico).
Then, a whatman filter disc #1 (Whatman Inc. USA) was treated with 3 mg/ml of cortisone acetate and dried. The filter disc was drenched with a vascular endothelial growth factor (VEGF) in a concentration of 20 ng/CAM.
The filter disc was put on the vessels through the previously made window, and a compound 12 of Example was dissolved in dimethylsulfoxide (DMSO) and diluted with phosphate buffered saline (PBS) to treat by concentrations.
After 3 days from the drug treatment, the CAMs, on which the filter disc was placed, were separated and washed with PBS to take images using a stereomicroscope (Stemi SV6 stereomicroscope, Carl Zeiss, Germany) and Image-Pro Plus software (Media Cybernetics; Silver Spring, Md., USA). Then, the number of branches was counted and the result data were analyzed.

HUVEC cells [4] = experiment: VEGF-induced growth inhibitory effect in HUVEC cells (MTT); type: cell-based, human; conditions: 24 hours, MTT (FIG. 3)
Experimental: HUVEC cells were cultured in a flask coated with 0.2% gelatin. Then, the HUVEC cells were cultured in an endothelial cell basal medium-2 (EBM-2, Clonetics, San Diego, Calif.). This EBM-2 contained fetal bovine serum (FBS), hydrocortisone, a human basic fibroblast growth factor (hFGF-B), a vascular endothelial growth factor (VEGF), a human recombinant insulin-like growth factor (R3-IGF-1), ascorbic acid, a human epidermal growth factor (hEGF), GA-1000, and heparin. The HUVEC cells were cultured for 4 to 5 days and injected into a 24-well plate in a density of 5×10^4 cells/well, and the media of the respective wells were set at 1 ml. In order to test the effect of the compound 12 in endothelial cells induced by the VEGF, the HUVEC cells were treated with a mixture of the VEGF and the compound 12 and cultured for 24 hours, and, then, 100 μl of MTT 3-(4,5-dimethylthiazol-2-yl)-2,5-diphenyl tetrazolium bromide; 5 g MTT/l in H2O) was added thereto and further cultured for 4 hours. Then, 200 μl of dimethylsulfoxide (DMSO) was added to the respective wells containing the corresponding cells and mixed with a pipette to dissolve the reduced MTT crystals. Relative cell survival rates were measured by scanning with a microplate reader (Molecular Devices, Menlo Park, Calif.) having 540 nm filter.

HUVEC cells [5] = experiment: chemostatic migration / infiltration inhibitory effect in HUVEC cells; type: cell-based, human; conditions: 1, 3, 10 μM, 24 hours, matrigel/collagen coated filter (FIG. 4)
Experimental: In order to examine a chemostatic migration inhibitory effect of the compound of the present invention, the following in vitro experiment was carried out using HUVEC cells (Mi-Sung Kim et al., Cancer Research, 63, 5454-5461, 2003; Sang-Oh Yoon et al., The Journal of Biological Chemistry, 276, 20085-20092, 2001; Sonia Zorzet et al., The Journal of Pharmacology and Experimental Therapeutics, 295, 927-933, 2000). A culture plate applied hereto was a 24-well plate (Corning Costar, Cambridge, Mass.) including a polycarbonate filter having a plurality of pores of […] in size. The bottom side of the polycarbonate filter was coated with 20 l of type I collagen in a concentration of 0.5 mg/ml, and the top side thereof was coated with 20 l of matrigel (BD Bioscience, Bedford, Mass.) in a concentration of 1.5 mg/ml. Here, the lower region of the polycarbonate filter was filled with a medium including 2% FBS, and the HUVEC cells were inoculated into the upper region of the polycarbonate filter. In this case, the compound 12 was dissolved in dimethyl sulfoxide (DMSO) and diluted with phosphate buffered saline (PBS) by concentrations (1, 3, 10 μM). The HUVEC cells inoculated as such were cultured at 37° C. for 24 hours. Subsequently, the cells infiltrating the bottom side of the polycarbonate filter were fixed with methanol and stained with hematoxylin and eosin. […]

HUVEC cells [6] = experiment: ROS scavenging effect in VEGF-induced HUVEC cells (DCF-DA); type: cell-based, human; conditions: 3 hours pre-treatment, VEGF 15 minutes, compared with the VEGF (FIG. 5)
Experimental: as §1

[7] = VEGF 20 ng/CAM + 3 ng/CAM, 0.7 μM
[8] = VEGF 20 ng/CAM + 100 ng/CAM, 23 μM
[9] = VEGF 20 ng/CAM + 1 μg/CAM, 3 days after treatment

For `Cc1nc2c(c(C)c1O)CC(C)(CCC[C@H](C)CCC[C@H](C)CCCC(C)C)N2C` (stereo partly shown) [Compound 12], the “angiogenesis caused by tumorigenesis” value (A549 lung cancer cells) was “inhibited angiogenesis caused by tumorigenesis”, the tumor growth (A549 lung cancer cells) was “inhibited tumor growth in a significantly low concentration as compared with α-tocopherol” and the clinical symptoms [1] was “any especially remarkable clinical symptoms were not observed”. The “fluorescence degree of the cells (ROS)” value ([2]; ARPE-19 treated with 4-hydroxynonenal (4-HNE), compared with control group (FIG. 7)) was “remarkably decreased as compared with the control group”, the “fluorescence degree of the cells (ROS)” value ([2]; ARPE-19 treated with angiotensin II, compared with control group (FIG. 6)) was “remarkably decreased as compared with the control group” and the “increase in neovascularization induced by the VEGF” value ([3]; CAM, VEGF 20 ng/CAM) was “decreased in a concentration-dependent manner”. It also gave an inhibition at 0.001 µM ([3]; Gallus gallus, VEGF 20 ng/CAM + 0.004 ng/CAM, 1 nM, read-out: Inhibition rate (%)) of 64 ± 12.5%, an inhibition at 0.01 µM ([3]; Gallus gallus, VEGF 20 ng/CAM + 0.04 ng/CAM, 10 nM, read-out: Inhibition rate (%)) of 71.4 ± 6.4% and an IC50 ([3]; Gallus gallus, VEGF-induced angiogenesis, treated by concentrations (FIG. 2)) of 0.7 nM. The “Number of branches/Main vessel” value ([3]; VEGF 20 ng/CAM + 0.004 ng/CAM, 1 nM) was 28 ± 4.7, the “Number of branches/Main vessel” value ([3]; VEGF 20 ng/CAM + 0.04 ng/CAM, 10 nM) was 25.2 ± 2.4 and the VEGF-induced cell growth (HUVEC cells [4]) was “reduced VEGF-induced cell growth in a concentration-dependent manner”. The “infiltration of the HUVEC cells” value (HUVEC cells [5]) was “reduced infiltration of the HUVEC cells in a concentration-dependent manner” and the “fluorescence degree of the cells (ROS, DCF-DA)” value (HUVEC cells [6]) was “remarkably decreased as compared with the VEGF”.
With `Cc1c(C)c2c(c(C)c1O)CC[C@@](C)(CCC[C@H](C)CCC[C@H](C)CCCC(C)C)O2` [α-tocopherol] the “Inhibition rate (%)” value [3, 7] was 45.1 ± 9.3%, the “Number of branches/Main vessel” value [3, 7] was 32.3 ± 3.5 and the “Inhibition rate (%)” value [3, 8] was 64.4 ± 14.2%. The “Number of branches/Main vessel” value [3, 8] was 24.3 ± 2.7.
For `CNC(=O)[C@H](Cc1ccccc1)NC(=O)[C@H](CC(C)C)[C@H](CSc1cccs1)C(=O)NO` [Batimastat], the “Inhibition rate (%)” value [3, 9] was 78.4 ± 7.4% and the “Number of branches/Main vessel” value [3, 9] was 19.9 ± 2.87.
With `CN(C)c1ccc(/C=C2\C(=O)Nc3ccccc32)cc1` [SU4312] the “Inhibition rate (%)” value [3, 9] was 74.6 ± 12.1% and the “Number of branches/Main vessel” value [3, 9] was 24 ± 4.6.
